Laboratory results as given in patent publication US20150190509A1, “RESIN[…]” (MESTEX AG, priority 2012, published 2015).

How the values were obtained:
[1] = storage stability of RTX dissolved in ethanol with or without protective gas; assay type: physicochemical
Procedure: Under these circumstances a loss of the RTX dissolved in ethanol occurs, on the order of magnitude of 10% in 3 months. However, if the RTX is dissolved together with argon in ethanol or in other body-compatible solvents, the loss at ambient temperature remains very low. As described in further detail below, RTX in the resiniferatoxin solution according to the invention even loses its undesired tendency to cling to polymeric surfaces.

[2] = loss of RTX on contact with polymer (polypropylene) syringe; assay type: physicochemical; settings: diluted ready-for-use solution (buffer solution and hyaluronic acid), kept in polypropylene syringe for 10 minutes
Source text: An additional positive property of the resiniferatoxin solution according to the invention is the fact that the substance is stabilized even in a diluted, ready-for-use solution (i.e. diluted with a buffer solution and hyaluronic acid), so that it can also be used in combination with commercial, polymer plastic syringes which are usually produced from polypropylene, polyethylene, polyurethane and other materials. To date, it has been considered absolutely necessary for the RTX solution not to come in contact with the polymer, because it binds immediately to it.

## C=C(C)[C@]12C[C@@H](C)[C@@]34O[C@](Cc5ccccc5)(O[C@@H]1[C@@H]3C=C(COC(=O)Cc1ccc(O)c(OC)c1)C[C@]1(O)C(=O)C(C)=C[C@@H]41)O2 [RTX, Resiniferatoxin]
[1]; RTX dissolved in ethanol at 5° C. with 0.07 wt% argon, second measurement series
  RTX content (stability of the dissolved RTX) over months: 100%
[1]; RTX dissolved in ethanol at 5° C. without additional protective gas (argon), first measurement series
  RTX content (stability of the dissolved RTX) over months: continuous decrease
[1]; RTX dissolved in ethanol at 25° C. with 0.07 wt % argon, third measurement series
  RTX content (stability of the dissolved RTX) over months: 100%
[1]; RTX dissolved together with argon in ethanol or other body-compatible solvents, ambient temperature
  loss of RTX at ambient temperature: very low
[1]; frozen RTX stored under protective gas (argon), then dissolved with ethanol, in 3 months
  loss of the RTX dissolved in ethanol: ~10%
[2]
  loss of RTX in polypropylene syringe: without measurable loss
